Results as given in patent publication US9290451B2 (Hoffmann-La Roche Inc., priority 2011, dated 2016).

Columns and labels:
human CB2 receptors = human CB2 receptors (Homo sapiens (Human), UniProt P34972); experiment: cAMP assay, CHO cells expressing human CB2 receptors; assay type: cell-based; conditions: CHO cells expressing human CB2, cAMP; read-out: human CB2 EC50
Outline: (§1)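 Read-out is TR-FRET (excitation 355 nm, emission 730/645 nm) after cell lysis, with cAMP content taken from a standard curve and EC50 calculated. Cells were pretreated with 1 mM IBMX in Krebs Ringer bicarbonate buffer, then incubated with compounds for 30 min at 30 °C.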

human CB1 receptors = human CB1 receptors (Homo sapiens (Human), UniProt P21554); experiment: cAMP assay, CHO cells expressing human CB1 receptors; assay type: cell-based; conditions: CHO cells expressing human CB1, cAMP; read-out: human CB1 EC50
Sequence of human CB1 receptors (P21554 whole entry): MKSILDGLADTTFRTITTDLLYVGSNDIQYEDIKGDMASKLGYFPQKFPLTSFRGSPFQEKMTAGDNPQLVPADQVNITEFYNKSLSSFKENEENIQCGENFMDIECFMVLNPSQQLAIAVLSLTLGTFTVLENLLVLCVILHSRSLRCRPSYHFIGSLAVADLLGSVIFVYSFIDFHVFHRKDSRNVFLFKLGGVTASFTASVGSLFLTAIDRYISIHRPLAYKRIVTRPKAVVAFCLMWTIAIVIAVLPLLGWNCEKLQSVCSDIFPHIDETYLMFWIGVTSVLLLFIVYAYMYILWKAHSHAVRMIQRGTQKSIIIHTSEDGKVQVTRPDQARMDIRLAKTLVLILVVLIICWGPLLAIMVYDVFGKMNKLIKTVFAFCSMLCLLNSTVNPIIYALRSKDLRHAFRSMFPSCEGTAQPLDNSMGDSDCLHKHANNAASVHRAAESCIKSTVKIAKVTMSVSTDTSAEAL
Outline: as §1

Sequence of human CB2 receptors (P34972 whole entry): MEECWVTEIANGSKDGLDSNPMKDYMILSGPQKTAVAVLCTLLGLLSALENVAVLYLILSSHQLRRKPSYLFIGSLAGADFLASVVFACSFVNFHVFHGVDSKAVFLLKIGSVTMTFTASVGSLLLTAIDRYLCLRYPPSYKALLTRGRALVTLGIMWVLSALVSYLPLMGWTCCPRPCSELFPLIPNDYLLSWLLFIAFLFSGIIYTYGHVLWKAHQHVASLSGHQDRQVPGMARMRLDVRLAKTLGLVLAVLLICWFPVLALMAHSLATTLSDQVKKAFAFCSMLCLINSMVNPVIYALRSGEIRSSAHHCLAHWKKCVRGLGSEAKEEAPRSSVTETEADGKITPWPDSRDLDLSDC

Row | Compound | EC50 (human CB2 receptors) | EC50 (human CB1 receptors)
1 | Cc1nc([C@@H](NC(=O)c2cccc(-c3ccc(F)c(Cl)c3)n2)C2CC2)no1 [Example 260, 6-(3-Chloro-4-fluoro-phenyl)-pyridine-2-carboxylic acid [(−)-cyclopropyl-(5-methyl-[1,2,4]oxadiazol-3-yl)-methyl]-amide] | 24.9 nM | > 10 µM
2 | Cc1nc(C(C)(C)NC(=O)c2cccc(-c3ccc(F)c(Cl)c3)n2)no1 [Example 268, 6-(3-Chloro-4-fluoro-phenyl)-pyridine-2-carboxylic acid [1-methyl-1-(5-methyl-[1,2,4]oxadiazol-3-yl)-ethyl]-amide] | 8.7 nM | 0.337 µM
3 | Cc1ccc(C(=O)NC(C)(C)c2nccs2)nc1-c1cccc(Cl)c1 [Example 50, 6-(3-Chloro-phenyl)-5-methyl-pyridine-2-carboxylic acid (1-methyl-1-thiazol-2-yl-ethyl)-amide] | 133 nM | 1.49 µM
4 | Cc1nc([C@H](CC(C)C)NC(=O)c2cccc(S(=O)(=O)CC(C)C)n2)no1 [Example 335, 6-(2-Methyl-propane-1-sulfonyl)-pyridine-2-carboxylic acid [(S)-3-methyl-1-(5-methyl-[1,2,4]oxadiazol-3-yl)-butyl]-amide] | 962 nM | > 10 µM
5 | CC(C)(CCN1CCOCC1)NC(=O)c1ccc(C2CC2)c(OCC2CC2)n1 [Example 154, 5-Cyclopropyl-6-cyclopropylmethoxy-pyridine-2-carboxylic acid (1,1-dimethyl-3-morpholin-4-yl-propyl)-amide] | 150 nM | > 10 µM
6 | O=C(NNC1CCS(=O)(=O)C1)c1ccc(N2CC(F)(F)C2)c(OCC2CC2)n1 (stereo not shown) [Example 293, 6-Cyclopropylmethoxy-5-(3,3-difluoro-azetidin-1-yl)-pyridine-2-carboxylic acid N′-(1,1-dioxo-tetrahydro-1λ^6-thiophen-3-yl)-hydrazide] | 790 nM | > 10 µM
7 | Cc1nc([C@H](CC2CC2)NC(=O)c2ccc(N3CC(F)(F)C3)c(OCC3CC3)n2)no1 [Example 138, 6-Cyclopropylmethoxy-5-(3,3-difluoro-azetidin-1-yl)-pyridine-2-carboxylic acid [(S)-2-cyclopropyl-1-(5-methyl-[1,2,4]oxadiazol-3-yl)-ethyl]-amide] | 26.7 nM | > 10 µM
8 | CNC(=O)[C@@H](NC(=O)c1cccc(-c2ccc(F)c(Cl)c2)n1)C(C)(C)C [Example 216, (S)-6-(3-Chloro-4-fluorophenyl)-N-(3,3-dimethyl-1-(methylamino)-1-oxobutan-2-yl)picolinamide] | 2.7 nM | 0.116 µM
9 | Cc1nc(C(C)(C)NC(=O)c2ccc(C3CC3)c(OCC3CCOCC3)n2)no1 [Example 202, 5-Cyclopropyl-N-(2-(5-methyl-1,2,4-oxadiazol-3-yl)propan-2-yl)-6-((tetrahydro-2H-pyran-4-yl)methoxy)picolinamide] | 23.6 nM | 0.615 µM
10 | CNC(=O)C(C)(C)NC(=O)c1ccc(C2CC2)c(-c2cccc(Cl)c2)n1 [Example 67, 6-(3-Chloro-phenyl)-5-cyclopropyl-pyridine-2-carboxylic acid (1-methyl-1-methylcarbamoyl-ethyl)-amide] | 797 nM | > 10 µM
11 | CC(C)C[C@@H](NC(=O)c1ccc(N2CC(F)(F)C2)c(OCC2CC2)n1)c1cccnn1 [Example 354, 6-Cyclopropylmethoxy-5-(3,3-difluoro-azetidin-1-yl)-pyridine-2-carboxylic acid ((R)-3-methyl-1-pyridazin-3-yl-butyl)-amide] | 14.9 nM | > 10 µM
12 | CN(C)C(=O)[C@@H](NC(=O)c1ccc(C2CC2)c(OCC2CC2)n1)c1ccccc1 [Example 226, 5-Cyclopropyl-6-cyclopropylmethoxy-pyridine-2-carboxylic acid ((+)-dimethylcarbamoyl-phenyl-methyl)-amide] | 19.9 nM | > 10 µM
13 | Cc1ccc(C(=O)N[C@@H](CC2CC2)c2nccs2)nc1OCC1CC1 [Example 65, 6-Cyclopropylmethoxy-5-methyl-pyridine-2-carboxylic acid ((S)-2-cyclopropyl-1-thiazol-2-yl-ethyl)-amide] | 33.8 nM | > 10 µM
14 | CC(C)C[C@H](NC(=O)c1ccc(C2CC2)c(OCc2ccccn2)n1)C(N)=O [Example 200, (S)-N-(1-Amino-4-methyl-1-oxopentan-2-yl)-5-cyclopropyl-6-(pyridin-2-ylmethoxy)picolinamide] | 23.3 nM | > 10 µM
15 | CCC(CC)(NC(=O)c1ccc(C2CC2)c(OCC(F)(F)C(F)(F)F)n1)C(=O)NC [Example 298, 5-Cyclopropyl-6-(2,2,3,3,3-pentafluoro-propoxy)-pyridine-2-carboxylic acid (1-ethyl-1-methylcarbamoyl-propyl)-amide] | 14.2 nM | > 10 µM
16 | CC(C)CSc1cccc(C(=O)N[C@@H](CC(C)C)C(N)=O)n1 [Example 331, 6-Isobutylsulfanyl-pyridine-2-carboxylic acid ((S)-1-carbamoyl-3-methyl-butyl)-amide] | 16.6 nM | > 10 µM

Row | Compound | EC50 (human CB2 receptors) | EC50 (human CB1 receptors)
17 | Cc1ccc(C(=O)NN2CCCCC2)nc1-c1cccc(Cl)c1 [Example 52, 6-(3-Chloro-phenyl)-5-methyl-pyridine-2-carboxylic acid piperidin-1-yl-amide] | 322 nM | > 10 µM
18 | O=C(NC(c1ccccn1)C(F)(F)F)c1ccc(C2CC2)c(OCC(F)(F)F)n1 (stereo not shown) [Example 302, 5-Cyclopropyl-6-(2,2,2-trifluoro-ethoxy)-pyridine-2-carboxylic acid (2,2,2-trifluoro-1-pyridin-2-yl-ethyl)-amide] | 587 nM | > 10 µM
19 | O=C(N[C@@H](CC1CC1)c1nccs1)c1ccc(C2CCOCC2)c(OCC2CC2)n1 [Example 59, 6-Cyclopropylmethoxy-5-(tetrahydro-pyran-4-yl)-pyridine-2-carboxylic acid ((S)-2-cyclopropyl-1-thiazol-2-yl-ethyl)-amide] | 32.5 nM | > 10 µM
20 | NC(=O)[C@H](NC(=O)c1ccc(C2CC2)c(OCC2CC2)n1)C1CC1 [Example 375, 5-Cyclopropyl-6-cyclopropylmethoxy-pyridine-2-carboxylic acid ((−)-carbamoyl-cyclopropyl-methyl)-amide] | 358 nM | > 10 µM
21 | CCC(CC)(NC(=O)c1ccc(C2CC2)c(Cc2ccc(F)cc2)n1)C(=O)O [Example 333, 2-{[5-Cyclopropyl-6-(4-fluoro-benzyl)-pyridine-2-carbonyl]-amino}-2-ethyl-butyric acid] | 8 nM | 0.081 µM
22 | CCC(CC)(NC(=O)c1ccc(C(F)(F)F)c(OCC2CC2)n1)C(=O)NC [Example 259, 6-Cyclopropylmethoxy-5-trifluoromethyl-pyridine-2-carboxylic acid (1-ethyl-1-methylcarbamoyl-propyl)-amide] | 5.1 nM | > 10 µM
23 | Cc1nc(C(C)(C)NC(=O)c2ccc(N3CCCC3)c(OCC3CC3)n2)no1 [Example 33, 6-Cyclopropylmethoxy-5-pyrrolidin-1-yl-pyridine-2-carboxylic acid [1-methyl-1-(5-methyl-[1,2,4]oxadiazol-3-yl)-ethyl]-amide] | 23.1 nM | > 10 µM
24 | Cc1ccc(C(=O)N[C@@H](CC2CC2)C(N)=O)nc1OCC1CC1 [Example 130, 6-Cyclopropylmethoxy-5-methyl-pyridine-2-carboxylic acid ((S)-1-carbamoyl-2-cyclopropyl-ethyl)-amide] | 50 nM | > 10 µM
25 | O=C(NN1CCCCC1)c1cccc(C2CCCC2)n1 [Example 94, 6-Cyclopentyl-pyridine-2-carboxylic acid piperidin-1-ylamide] | 129 nM | > 10 µM
26 | NC(=O)[C@H](CC1CC1)NC(=O)c1ccc(N(CC(F)(F)F)CC(F)(F)F)c(OCC2CC2)n1 [Example 162, 5-[Bis-(2,2,2-trifluoro-ethyl)-amino]-6-cyclopropylmethoxy-pyridine-2-carboxylic acid ((S)-1-carbamoyl-2-cyclopropyl-ethyl)-amide] | 54.4 nM | 0.674 µM
27 | CC(C)(C)NC(=O)c1ccc(N2CC(F)(F)C2)c(OCC2CC2)n1 [Example 359, 6-Cyclopropylmethoxy-5-(3,3-difluoro-azetidin-1-yl)-pyridine-2-carboxylic acid tert-butylamide] | 6.9 nM | > 10 µM
28 | CN1CC(NC(=O)c2ccc(N3CC(F)(F)C3)c(OCC3CC3)n2)CC1=O (stereo not shown) [Example 290, 6-Cyclopropylmethoxy-5-(3,3-difluoro-azetidin-1-yl)-pyridine-2-carboxylic acid (1-methyl-5-oxo-pyrrolidin-3-yl)-amide] | 846 nM | > 10 µM
29 | O=C(c1ccc(N2CCC(F)(F)C2)c(OCC2CC2)n1)N1CCS(=O)(=O)CC1 [Example 79] | 2040 nM | > 10 µM
30 | COCCOC[C@H](CC1CC1)NC(=O)c1ccc(N2CC(F)(F)C2)c(OCC2CC2)n1 [Example 157, 6-Cyclopropylmethoxy-5-(3,3-difluoro-azetidin-1-yl)-pyridine-2-carboxylic acid [(S)-2-cyclopropyl-1-(2-methoxy-ethoxymethyl)-ethyl]-amide] | 27.4 nM | > 10 µM
31 | COc1ccc(C(=O)NC(C)(C)c2noc(C)n2)nc1-c1cccc(Cl)c1 [Example 89, 6-(3-Chloro-phenyl)-5-methoxy-pyridine-2-carboxylic acid [1-methyl-1-(5-methyl-[1,2,4]oxadiazol-3-yl)-ethyl]-amide] | 119 nM | 1.36 µM
32 | CCC(CC)(NC(=O)c1ccc(N2CC(F)(F)C2)c(OCC2CC2)n1)C(=O)N1CC(F)(F)C1 [Example 307, 6-Cyclopropylmethoxy-5-(3,3-difluoro-azetidin-1-yl)-pyridine-2-carboxylic acid [1-(3,3-difluoro-azetidine-1-carbonyl)-1-ethyl-propyl]-amide] | 4.7 nM | > 10 µM
